Assay results reported in paper PMC9655341 (Molecules, 2022).
One block for each molecule: values may come before it.

Experiments:
[1] = molecular target: T1, human MT2 melatonin receptor (Homo sapiens, UniProt P49286); assay: Radioligand binding assay at human MT2 (MDS Pharma Services), 2-[125I]iodomelatonin; details: for IC50 / Ki / nH (Hill coefficient): MT2; for inhibition at 50 pM: MT2, concentration 0.05 nM; for inhibition at 0.001 µM: MT2, concentration 1 nM; for inhibition at 1 µM: MT2, concentration 1 µM
T1 construct: expressed in transfected cells; host or cells: CHO (Chinese hamster ovary) cells, stably transfected
T1 sequence (P49286 1-362): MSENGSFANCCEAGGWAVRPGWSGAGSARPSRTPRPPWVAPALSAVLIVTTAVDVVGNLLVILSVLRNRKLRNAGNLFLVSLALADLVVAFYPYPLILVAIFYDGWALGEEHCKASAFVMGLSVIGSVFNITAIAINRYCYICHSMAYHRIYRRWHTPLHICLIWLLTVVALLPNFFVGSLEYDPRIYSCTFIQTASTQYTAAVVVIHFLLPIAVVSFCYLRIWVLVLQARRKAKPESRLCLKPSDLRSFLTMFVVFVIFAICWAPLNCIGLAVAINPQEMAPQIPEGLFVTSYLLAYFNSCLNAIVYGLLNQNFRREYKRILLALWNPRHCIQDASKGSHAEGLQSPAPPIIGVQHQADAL
Description: The newly synthesized indole derivatives were evaluated for their binding affinity and intrinsic activity at human MT1 and MT2 receptors stably transfected in Chinese hamster ovary (CHO) cells using 2-[^125I]iodomelatonin as a radioligand, and the results are shown in Table 5 and Table 6.

[2] = molecular target: T2, human MT1 melatonin receptor (Homo sapiens, UniProt P48039); assay: Radioligand binding assay at human MT1 (MDS Pharma Services), 2-[125I]iodomelatonin; details: for inhibition at 50 pM: MT1, concentration 0.05 nM; for inhibition at 0.001 µM: MT1, concentration 1 nM; for inhibition at 1 µM: MT1, concentration 1 µM
T2 construct: expressed in transfected cells; host or cells: CHO (Chinese hamster ovary) cells, stably transfected

[3] = molecular target: T3, human MT1 receptors (Homo sapiens, UniProt P48039); assay: Intrinsic activity at human MT1 receptors stably transfected in CHO cells; format: biochemical; details: MT1, melatonin = 1.00
T3 construct: expressed in transfected cells; host or cells: CHO (Chinese hamster ovary) cells, stably transfected

[4] = molecular target: T3, human MT1 receptors; assay: Binding affinity at human MT1 receptors stably transfected in CHO cells, 2-[125I]iodomelatonin; details: read-out: MT1 pKi (Mean ± SD) (converted)
[5] = molecular target: T4, human MT2 receptors (Homo sapiens, UniProt P49286); assay: Binding affinity at human MT2 receptors stably transfected in CHO cells, 2-[125I]iodomelatonin; details: read-out: MT2 pKi (Mean ± SD) (converted)
T4 construct: expressed in transfected cells; host or cells: CHO (Chinese hamster ovary) cells, stably transfected
T4 sequence (P49286 1-362): T1 sequence (P49286 1-362)

[6] = molecular target: T4, human MT2 receptors; assay: Intrinsic activity at human MT2 receptors stably transfected in CHO cells; format: biochemical; details: MT2, melatonin = 1.00
[7] = Oxidation of 2,3-dihydroindoles in solution (NMR tube, storage in DMSO solution); format: physicochemical
Description: Despite stability in the solid phase, the obtained 2,3-dihydroindoles are sensitive to oxidation in solution. Thus, the oxidation in the NMR tube occurred both in spiro and 3H-containing indolines, but led to different types of products. […] The compounds 8i,l,g were also partially converted to aromatic indoles 9i,l,g during purification by column chromatography.
[formula] Scheme 10 Oxidative conversion of 2,3-dihydroindoles during storage in DMSO solution.

T3 sequence (P48039 whole entry): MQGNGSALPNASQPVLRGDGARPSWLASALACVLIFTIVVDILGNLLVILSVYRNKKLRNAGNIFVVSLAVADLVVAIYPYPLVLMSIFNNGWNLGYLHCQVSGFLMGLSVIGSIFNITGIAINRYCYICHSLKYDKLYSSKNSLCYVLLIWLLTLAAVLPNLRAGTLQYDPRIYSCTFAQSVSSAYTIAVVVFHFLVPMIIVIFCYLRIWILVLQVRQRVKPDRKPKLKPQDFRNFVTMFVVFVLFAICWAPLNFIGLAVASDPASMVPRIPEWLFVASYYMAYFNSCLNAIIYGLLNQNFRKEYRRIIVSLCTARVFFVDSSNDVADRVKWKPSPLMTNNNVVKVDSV
T2 sequence (P48039 whole entry): as above

Structure (SMILES): CCC(=O)NC1Cc2ccccc2C(c2ccccc2)C1 (stereo not drawn) [4-P-PDOT, reference compound]
- IC50 [1]: 0.497 nM
- Ki [1]: 0.258 nM
- nH (Hill coefficient) [1]: 0.840

Structure (SMILES): COc1ccc2c(c1)C(CCNC(C)=O)C(=O)N2 (stereo not drawn) [7a, N-[2-(5-methoxy-2-oxo-2,3-dihydro-1H-indol-3-yl)ethyl]acetamide]
- IC50 [1]: 268 nM
- Ki [1]: 139 nM
- nH (Hill coefficient) [1]: 0.676
- inhibition at 50 pM [1]: 4%
- inhibition at 0.001 µM [1]: 3%
- inhibition at 1 µM [1]: 71%
- IC50 ([2]; MT1): > 1000 nM
- inhibition at 50 pM [2]: 4%
- inhibition at 0.001 µM [2]: 3%
- inhibition at 1 µM [2]: 46%

Structure (SMILES): COc1ccc2[nH]c(Cl)c(CCNC(C)=O)c2c1 [7d, 2-chloromelatonin]
- IC50 [1]: 0.338 nM
- Ki [1]: 0.176 nM
- nH (Hill coefficient) [1]: 1.01
- inhibition at 50 pM [1]: 13%
- inhibition at 0.001 µM [1]: 75%
- inhibition at 1 µM [1]: 98%
- IC50 ([2]; MT1): 0.138 nM
- Ki ([2]; MT1): 0.0716 nM
- nH (Hill coefficient) ([2]; MT1): 0.925
- inhibition at 50 pM [2]: 28%
- inhibition at 0.001 µM [2]: 86%
- inhibition at 1 µM [2]: 100%
- MT1 receptor binding activity compared with melatonin ([2]; MT1, in words): more active than melatonin

Structure (SMILES): CC(=O)NCCC1CN(Cc2ccccc2)c2ccccc21 (stereo not drawn) [8m, N-[2-(1-Benzyl-2,3-dihydro-1H-indol-3-yl)ethyl]acetamide]
- Stability to oxidation in solution [7]: aromatization of the indole ring occurred

Structure (SMILES): COc1ccc2[nH]cc(CCNC(C)=O)c2c1 [Melatonin, 3-(2-(acetylamino)ethyl)-5-methoxyindole, reference compound]
- MT1 Intrinsic Activity [3]: 1.00 ± 0.03
- nH (Hill coefficient) ([2]; MT1): 0.774

Results, then the molecule that gave them:

- MT1 Intrinsic Activity [3]: 0.47 ± 0.10
- Ki [4]: 776 nM
- Ki [5]: 427 nM
- MT2 Intrinsic Activity [6]: 0.74 ± 0.07
Structure (SMILES): CC(=O)NCCC1(C)CN(C)c2ccccc21 (stereo not drawn) [8a, N-[2-(1,3-Dimethyl-2,3-dihydro-1H-indol-3-yl)ethyl]acetamide]

- MT1 Intrinsic Activity [3]: 0.33 ± 0.04
- Ki [4]: 1740 nM
- Ki [5]: 72.4 nM
- MT2 Intrinsic Activity [6]: 0.45 ± 0.04
Structure (SMILES): CC(=O)NCCC1(C)CN(Cc2ccccc2)c2ccccc21 (stereo not drawn) [8b, N-[2-(1-Benzyl-3-methyl-2,3-dihydro-1H-indol-3-yl)ethyl]acetamide]

- MT1 Intrinsic Activity [3]: 0.94 ± 0.10
- Ki [4]: 58.9 nM
- Ki [5]: 195 nM
- MT2 Intrinsic Activity [6]: 0.96 ± 0.07
Structure (SMILES): COc1ccc2c(c1)C(C)(CCNC(C)=O)CN2C (stereo not drawn) [8e, N-[2-(1,3-Dimethyl-5-methoxy-2,3-dihydro-1H-indol-3-yl)ethyl]acetamide]

- MT1 Intrinsic Activity [3]: 0.63 ± 0.14
- Ki [4]: 112 nM
- Ki [5]: 46.8 nM
- MT2 Intrinsic Activity [6]: 0.61 ± 0.03
Structure (SMILES): COc1ccc2c(c1)C(C)(CCNC(C)=O)CN2Cc1ccccc1 (stereo not drawn) [8f, N-[2-(1-Benzyl-3-methyl-5-methoxy-2,3-dihydro-1H-indol-3-yl)ethyl]acetamide]

- MT1 Intrinsic Activity [3]: 1.04 ± 0.14
- Ki [4]: 5.25 nM
- Ki [5]: 2.29 nM
- MT2 Intrinsic Activity [6]: 0.85 ± 0.08
Structure (SMILES): COc1ccc2c(c1)C(CCNC(C)=O)CN2Cc1ccccc1 (stereo not drawn) [8h, N-[2-(1-Benzyl-5-methoxy-2,3-dihydro-1H-indol-3-yl)ethyl]acetamide]

- MT1 Intrinsic Activity [3]: 0.61 ± 0.15
- Ki [4]: 251 nM
- Ki [5]: 166 nM
- MT2 Intrinsic Activity [6]: 0.83 ± 0.05
Structure (SMILES): CC(=O)NCCC1CN(C)c2c1ccc(C)c2C (stereo not drawn) [8l, N-[2-(1,6,7-Trimethyl −2,3-dihydro-1H-indol-3-yl)ethyl]acetamide]

- Stability to oxidation in solution [7]: oxidized to 2-oxindole
Structure (SMILES): CC(=O)NCC1CC12CN(C)c1ccccc12 (stereo not drawn) [10a, N-{1′-Methyl-1′,2′-dihydrospiro[cyclopropan-1,3′-indol]-3-ylmethyl}acetamide]
